Experimental data taken from patent publication US10323018B2 (Millennium Pharmaceuticals, Inc., priority 2015, dated 2019).
pIC50: −log10 of the molar value.

Experiments:
[1] = target: hNAMPT protein (Homo sapiens (Human), UniProt P43490); experiment: NAMPT enzyme assay (TR-FRET/HTRF with BodiPY ligand); type: binding; settings: for inhibition at 1 µM: NAMPT inhibition at compound concentration 1 μM; for pIC50: NAMPT inhibition, IC50 range class
Method in brief: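 Ligand displacement by TR-FRET: BodiPY emission (520 nm) over terbium (486 nm) after 320 nm excitation. Compound, BodiPY ligand, hNAMPT and anti-6His-Tb incubated 1 h at room temperature, dark, at pH 7.5. Percent inhibition computed versus DMSO; concentration-response curves fitted for IC50.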

[2] = system: PC3 cells; experiment: PC3 growth inhibition (Cell-titer glo, 72 hours); type: cell-based; settings: Homo sapiens, PC-3, 72 h, read-out: Percent Viability, PC3 cells, compound concentration 1.667 μM, 72 hours
Method in brief: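 After 72 h compound treatment in AIM serum-free medium (37 °C, 5% CO2), viability of overnight-plated PC3 cells (8×10^4 cells/ml, RPMI1640-maintained) is read by CellTiter-Glo luminescence versus DMSO. Curves give GI50, LD50 or single-concentration % remaining viability.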

Sequence of hNAMPT protein (P43490 whole entry): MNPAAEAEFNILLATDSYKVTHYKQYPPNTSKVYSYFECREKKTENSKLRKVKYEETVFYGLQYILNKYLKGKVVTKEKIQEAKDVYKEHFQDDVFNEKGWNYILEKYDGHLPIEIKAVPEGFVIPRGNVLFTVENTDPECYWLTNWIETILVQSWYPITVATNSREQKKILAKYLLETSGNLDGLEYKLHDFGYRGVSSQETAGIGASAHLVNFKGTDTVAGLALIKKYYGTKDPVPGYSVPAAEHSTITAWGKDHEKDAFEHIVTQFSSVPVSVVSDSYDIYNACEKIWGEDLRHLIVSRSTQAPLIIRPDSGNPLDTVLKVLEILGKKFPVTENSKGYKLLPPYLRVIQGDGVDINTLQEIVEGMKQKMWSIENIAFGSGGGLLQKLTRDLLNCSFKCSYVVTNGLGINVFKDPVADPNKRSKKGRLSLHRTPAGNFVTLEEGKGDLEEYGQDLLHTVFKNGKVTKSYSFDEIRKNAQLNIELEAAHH

| Compound | inhibition at 1 µM ([1]; read-out: Percent Inhibition) | pIC50 [1] | viability at 1.667 µM [2] | inhibition at 0.33 µM ([1]; NAMPT inhibition at compound concentration 0.33 μM, read-out: Percent Inhibition) |
| --- | --- | --- | --- | --- |
| CCOc1cc(-c2cc(OC)ncc2Cl)nc2cc(C(=O)NCCCc3nnc[nH]3)ccc12 [Compound I-164, 2-(5-chloro-2-methoxypyridin-4-yl)-4-ethoxy-N-[3-(4H-1,2,4-triazol-3-yl)propyl]quinoline-7-carboxamide] | 97% | > 8.00 | 2% | – |
| CCOc1cc(-c2ccc(F)cc2OC)nc2cc(C(=O)NCCCc3nnc[nH]3)ccc12 [Compound I-165, 4-ethoxy-2-(4-fluoro-2-methoxyphenyl)-N-[3-(4H-1,2,4-triazol-3-yl)propyl]quinoline-7-carboxamide] | 99% | 7.30 to 8.00 | 1% | – |
| CCOc1cc(-c2ccnc(OC)c2Cl)nc2cc(C(=O)NCCCc3nnc[nH]3)ccc12 [Compound I-166, 2-(3-chloro-2-methoxypyridin-4-yl)-4-ethoxy-N-[3-(4H-1,2,4-triazol-3-yl)propyl]quinoline-7-carboxamide] | 94% | 7.30 to 8.00 | 2% | – |
| CCOc1cc(-c2ccc(C)nc2)nc2cc(C(=O)NCc3nc4cnccc4[nH]3)ccc12 [Compound I-167, 4-ethoxy-N-(1H-imidazo[4,5-c]pyridin-2-ylmethyl)-2-(6-methylpyridin-3-yl)quinoline-7-carboxamide] | > 99% | > 8.00 | 2% | – |
| CCOc1cc(-c2ccc(C)nc2)nc2cc(C(=O)NCCc3nnc[nH]3)ccc12 [Compound I-168, 4-ethoxy-2-(6-methylpyridin-3-yl)-N-[2-(4H-1,2,4-triazol-3-yl)ethyl]quinoline-7-carboxamide] | 95% | 7.30 to 8.00 | 2% | – |
| CCOc1cc(-c2ccc(C)nc2)nc2cc(C(=O)NCCc3c[nH]nn3)ccc12 [Compound I-169, 4-ethoxy-2-(6-methylpyridin-3-yl)-N-[2-(1H-1,2,3-triazol-4-yl)ethyl]quinoline-7-carboxamide] | 97% | 7.30 to 8.00 | 3% | – |
| CCOc1cc(-c2ccc(F)cc2OC)nc2cc(C(=O)NCCc3ncn[nH]3)ccc12 [Compound I-170, 4-ethoxy-2-(4-fluoro-2-methoxyphenyl)-N-[2-(1H-1,2,4-triazol-5-yl)ethyl]quinoline-7-carboxamide] | 93% | 7.00 to 7.30 | 2% | – |
| CCCc1cc(-c2ccc(F)cc2)nc2cc(C(=O)NCCCc3ncn[nH]3)ccc12 [Compound I-171, 2-(4-fluorophenyl)-4-propyl-N-[3-(4H-1,2,4-triazol-3-yl)propyl]quinoline-7-carboxamide] | 97% | 7.30 to 8.00 | 2% | – |
| CCOc1cc(-c2ccnc(C)c2)nc2cc(C(=O)NCCc3nnc[nH]3)ccc12 [Compound I-172, 4-ethoxy-2-(2-methylpyridin-4-yl)-N-[2-(4H-1,2,4-triazol-3-yl)ethyl]quinoline-7-carboxamide] | 71% | < 7.00 | 6% | – |
| CCOc1cc(-c2ccc(C)nc2)nc2cc(C(=O)NCCCc3nnc[nH]3)ccc12 [Compound I-173, 4-ethoxy-2-(6-methylpyridin-3-yl)-N-[3-(4H-1,2,4-triazol-3-yl)propyl]quinoline-7-carboxamide] | 98% | 7.30 to 8.00 | 2% | – |
| CCOc1cc(-c2ccc(C)nc2OC)nc2cc(C(=O)NCc3nc4cnccc4[nH]3)ccc12 [Compound I-174, 4-ethoxy-N-(1H-imidazo[4,5-c]pyridin-2-ylmethyl)-2-(2-methoxy-6-methylpyridin-3-yl)quinoline-7-carboxamide] | > 99% | > 8.00 | 1% | – |
| CCOc1cc(-c2ccc(Cl)s2)nc2cc(C(=O)NCc3nc4cnccc4[nH]3)ccc12 [Compound I-175, 2-(5-chloro-2-thienyl)-4-ethoxy-N-(1H-imidazo[4,5-c]pyridin-2-ylmethyl)quinoline-7-carboxamide] | – | > 8.00 | 2% | 98% |
| CCOc1cc(-c2ccc(Cl)s2)nc2cc(C(=O)NCCc3cnn[nH]3)ccc12 [Compound I-176, 2-(5-chloro-2-thienyl)-4-ethoxy-N-[2-(1H-1,2,3-triazol-5-yl)ethyl]quinoline-7-carboxamide] | 99% | 7.30 to 8.00 | 4% | – |
| CCOc1cc(-c2ccc(Cl)s2)nc2cc(C(=O)NCCc3nnc[nH]3)ccc12 [Compound I-177, 2-(5-chloro-2-thienyl)-4-ethoxy-N-[2-(4H-1,2,4-triazol-3-yl)ethyl]quinoline-7-carboxamide] | 97% | 7.30 to 8.00 | 3% | – |
| CCOc1cc(-c2ccc(F)cc2)nc2cc(C(=O)NCc3nc4cnccc4n3C)ccc12 [Compound I-178, 4-ethoxy-2-(4-fluorophenyl)-N-[(1-methyl-1H-imidazo[4,5-c]pyridin-2-yl)methyl]quinoline-7-carboxamide] | 99% | > 8.00 | 2% | – |
| CCOc1cc(-c2cc(F)ccc2OC)nc2cc(C(=O)NCc3nc4cnccc4n3C)ccc12 [Compound I-179, 4-ethoxy-2-(5-fluoro-2-methoxyphenyl)-N-[(1-methyl-1H-imidazo[4,5-c]pyridin-2-yl)methyl]quinoline-7-carboxamide] | 95% | 7.00 to 7.30 | 2% | – |
| CCOc1cc(-c2cccnc2OC)nc2cc(C(=O)NCCc3nnc[nH]3)ccc12 [Compound I-180, 4-ethoxy-2-(2-methoxypyridin-3-yl)-N-[2-(4H-1,2,4-triazol-3-yl)ethyl]quinoline-7-carboxamide] | 83% | < 7.00 | 2% | – |
| CCOc1cc(-c2ccnc(C)c2)nc2cc(C(=O)NCCc3cnn[nH]3)ccc12 [Compound I-181, 4-ethoxy-2-(2-methylpyridin-4-yl)-N-[2-(1H-1,2,3-triazol-5-yl)ethyl]quinoline-7-carboxamide] | 86% | < 7.00 | 9% | – |
| CCOc1cc(-c2cc(F)ccc2OC)nc2cc(C(=O)NCCc3nnc[nH]3)ccc12 [Compound I-182, 4-ethoxy-2-(5-fluoro-2-methoxyphenyl)-N-[2-(4H-1,2,4-triazol-3-yl)ethyl]quinoline-7-carboxamide] | 77% | < 7.00 | 5% | – |
| CCOc1cc(-c2ccc(C)nc2OC)nc2cc(C(=O)NCCCc3nc[nH]n3)ccc12 [Compound I-183, 4-ethoxy-2-(2-methoxy-6-methylpyridin-3-yl)-N-[3-(1H-1,2,4-triazol-3-yl)propyl]quinoline-7-carboxamide] | 94% | 7.00 to 7.30 | 2% | – |
| CCOc1cc(-c2cc(F)ccc2OC)nc2cc(C(=O)NCCc3cnn[nH]3)ccc12 [Compound I-184, 4-ethoxy-2-(5-fluoro-2-methoxyphenyl)-N-[2-(1H-1,2,3-triazol-5-yl)ethyl]quinoline-7-carboxamide] | 91% | 7.00 to 7.30 | 6% | – |
| CCOc1cc(-c2ccc(OC)nc2)nc2cc(C(=O)NCCc3c[nH]nn3)ccc12 [Compound I-185, 4-ethoxy-2-(6-methoxypyridin-3-yl)-N-[2-(1H-1,2,3-triazol-4-yl)ethyl]quinoline-7-carboxamide] | 98% | 7.30 to 8.00 | 2% | – |
| CCOc1cc(-c2ccc(OC)nc2)nc2cc(C(=O)NCCc3nc[nH]n3)ccc12 [Compound I-186, 4-ethoxy-2-(6-methoxypyridin-3-yl)-N-[2-(1H-1,2,4-triazol-3-yl)ethyl]quinoline-7-carboxamide] | 99% | 7.30 to 8.00 | 4% | – |
| CCOc1cc(-c2cc(F)ccc2OC)nc2cc(C(=O)NCc3nc4cnccc4[nH]3)ccc12 [Compound I-187, 4-ethoxy-2-(5-fluoro-2-methoxyphenyl)-N-(1H-imidazo[4,5-c]pyridin-2-ylmethyl)quinoline-7-carboxamide] | > 99% | > 8.00 | 3% | – |
| CCOc1cc(-c2cc(OC)ncc2F)nc2cc(C(=O)NCc3nc4cnccc4[nH]3)ccc12 [Compound I-188, 4-ethoxy-2-(5-fluoro-2-methoxypyridin-4-yl)-N-(1H-imidazo[4,5-c]pyridin-2-ylmethyl)quinoline-7-carboxamide] | 99% | > 8.00 | 3% | – |
| CCOc1cc(-c2cc(OC)ncc2F)nc2cc(C(=O)NCCc3cnn[nH]3)ccc12 [Compound I-189, 4-ethoxy-2-(5-fluoro-2-methoxypyridin-4-yl)-N-[2-(1H-1,2,3-triazol-5-yl)ethyl]quinoline-7-carboxamide] | 74% | < 7.00 | > 99% | – |
| CCOc1cc(-c2cccnc2OC)nc2cc(C(=O)NCCc3cnn[nH]3)ccc12 [Compound I-190, 4-ethoxy-2-(2-methoxypyridin-3-yl)-N-[2-(1H-1,2,3-triazol-5-yl)ethyl]quinoline-7-carboxamide] | 94% | 7.00 to 7.30 | 5% | – |
| CCOc1cc(-c2ccnc(OC)c2)nc2cc(C(=O)NCCc3nnc[nH]3)ccc12 [Compound I-191, 4-ethoxy-2-(2-methoxypyridin-4-yl)-N-[2-(4H-1,2,4-triazol-3-yl)ethyl]quinoline-7-carboxamide] | 79% | < 7.00 | 10% | – |
